Measured values from patent US20260165323A1, “USE OF STROBILURIN TYPE COMPOUNDS FOR COMBATING PHYTOPATHOGENIC FUNGI CONTAINING AN AMINO ACID SUBSTITUTION F129L IN THE MITOCHONDRIAL CYTOCHROME B PROTEIN CONFERRING RESISTANCE TO QO […]” (priority 2022, published 2026).

Experiments:
[1] = tested on: Cercospora sojina (CERCSO); assay: Use example 7: microtest, growth of Cercospora sojina (CERCSO); type: cell-based; conditions: 31 ppm; relative growth vs compound-free control (100%), 7 days after inoculation
Description: The active compounds were formulated separately as a stock solution having a concentration of 10000 ppm in dimethyl sulfoxide. The stock solutions were mixed according to the ratio, pipetted onto a micro titer plate (MTP) and diluted with water to the stated concentrations. A spore suspension of one of the following fungal plant pathogens in aqueous bio malt solution • was then added for the respective use example: • Use example 5: Alternaria solani (ALTESO) • Use example 6: Botrytis cinerea (BOTRCI) • Use example 7: Cercospora sojina (CERCSO) • Use example 8: Colletotrichum orbiculare (COLLLA) • Use example 9: Leptosphaeria nodorum (LEPTNO) • Use example 10: Drechslera teres (PYRNTE) containing the amino acid substitution F129L in the mitochondrial cytochrome b protein conferring resistance to Qo inhibitors • Use example 11: Sclerotinia sclerotiorum (SCLESC), solute with ultrasonic from a filter membrane
The plates were placed in a water vapor-saturated chamber at a temperature of 18° C. Using an absorption photometer, the MTPs were measured at 405 nm 7 days after the inoculation.
The measured parameters were compared to the growth of the active compound-free control variant (100%) and the fungus-free blank value to determine the relative growth in % of the pathogens in the respective active compounds.

Puccinia recondita [2] = assay: Use Example 4: preventative control of brown rust on wheat (PUCCRT P7); type: in vivo; conditions: inoculated seven days after spraying, % diseased leaf area
Method in brief: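 First two leaves of potted wheat seedlings sprayed to run-off with compound in acetone/DMSO–emulsifier–water, then inoculated with Puccinia recondita spores seven days later. Plants held 24 h dark at 95–99% RH and 20–24 °C, then 9–11 days in greenhouse; diseased leaf area (%) scored visually.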

Puccinia recondita [3] = assay: Use Example 3: curative control of brown rust on wheat (PUCCRT K4); type: in vivo; conditions: % diseased leaf area
Method in brief: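 Wheat seedlings inoculated with Puccinia recondita spores, held 24 h at 95–99% RH, 20–24° C in dark, then 3 days in greenhouse before spraying to run-off (curative). Compound in acetone/DMSO–Wettol–water. After 5–7 further days at 20–24° C, 65–70% RH, % diseased leaf area scored visually.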

[4] = tested on: Phakopsora pachyrhizi containing the amino acid substitution F129L in the mitochondrial cytochrome b protein; assay: Use Example 1: protective control of soybean rust on soybeans (PHAKPA P2); type: in vivo; conditions: inoculated 2 days after spraying, % diseased leaf area
Method in brief: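 Soybean seedling leaves sprayed to run-off with compound in acetone/DMSO–Wettol–water at the stated concentration, kept 2 days at 23-27° C, then inoculated with Qo-inhibitor-resistant F129L P. pachyrhizi. After 24 h at ~95% RH, 20-24° C, and up to 14 days in greenhouse, % diseased leaf area scored visually.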

[5] = tested on: Phakopsora pachyrhizi containing the amino acid substitution F129L in the mitochondrial cytochrome b protein; assay: Use Example 2: protective control of soybean rust on soybeans (PHAKPA P6); type: in vivo; conditions: inoculated six days after spraying, % diseased leaf area
Method in brief: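 Compound in acetone and/or DMSO with Wettol (99:1), diluted with water, was sprayed to run-off on potted soybean seedlings. After six days at 23–27°C and 60–80% RH, plants were inoculated with a Qo-resistant F129L strain and held 24 h at about 95% RH. Percent diseased leaf area was scored visually after up to 14 days.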

Compound | Growth at 31 ppm (%) CERCSO Use ex. 7 [1] [%] | % PUCCRT Disease level P7 at 4 ppm (Puccinia recondita [2]) [%] | % PUCCRT Disease level P7 at 16 ppm (Puccinia recondita [2]) [%] | % PUCCRT Disease level K4 at 4 ppm (Puccinia recondita [3]) [%] | % PUCCRT Disease level K4 at 16 ppm (Puccinia recondita [3]) [%] | % PHAKPA (F129L) Disease level P2 at 4 ppm [4] [%] | % PHAKPA (F129L) Disease level P2 at 16 ppm [4] [%] | % PHAKPA (F129L) Disease level P6 at 4 ppm [5] [%] | % PHAKPA (F129L) Disease level P6 at 16 ppm [5] [%]
COC/C(=N\OCc1c(C)cccc1/C(=N\OC)C(=O)OC)c1cccc(Cl)c1 [reference compound] | 60 | – | – | – | – | – | – | – | –
COC/C(=N\OCc1c(Cl)cccc1/C(=N\OC)C(=O)OC)c1cccc(Cl)c1 [compound 37] | 40 | 40 | 5 | 75 | 72 | 67 | 18 | 72 | 39
CCOC/C(=N\OCc1c(Cl)cccc1/C(=C\OC)C(=O)OC)c1ccc(Cl)cc1 [compound 45] | – | 82 | 27 | 80 | 68 | 60 | 8 | 70 | 15
CNC(=O)/C(=N/OC)c1cccc(Cl)c1CO/N=C(\COC)c1cccc(Cl)c1F [compound 99] | – | 42 | 7 | 82 | 10 | 21 | 1 | 17 | 2
CO/C=C(/C(=O)OC)c1cccc(Cl)c1CO/N=C(\COC)c1ccccn1 [compound 129, Methyl (E)-2-[3-chloro-2-[[(Z)-[2-methoxy-1-(2-pyridyl)ethylidene]amino]oxymethyl]phenyl]-3-methoxy-prop-2-enoate] | – | – | 18 | 11 | 1 | 1 | 0 | 4 | 1
CCOCC(=NOCc1c(Cl)cccc1C(=COC)C(=O)OC)c1ccccc1 [compound 54] | – | 75 | 27 | 77 | 30 | 21 | 1 | 20 | 3
CCOC/C(=N\OCc1c(Cl)cccc1/C(=N\OC)C(=O)OC)c1cccc(Cl)c1 [compound 33] | – | 65 | 35 | 73 | 73 | 93 | 67 | 75 | 72
CCOC/C(=N\OCc1c(Cl)cccc1/C(=N\OC)C(=O)NC)c1c(F)cc(F)cc1F [compound 32] | – | 53 | 30 | 77 | 57 | 12 | 0 | 33 | 1
CO/C=C(/C(=O)OC)c1cccc(Cl)c1CO/N=C(\COC)c1cc(F)cc(F)c1 [compound 80] | – | 5 | 3 | 30 | 0 | 5 | 0 | 0 | 0
